PubChem BioAssay (NCI)
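Briefly, cells in 96-well plates were exposed to five compound concentrations for 48 h, and endpoints were estimated by linear interpolation. GI50 = concentration required for 50% inhibition of growth. TGI marks complete inhibition of growth.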

Key:
Test in all cases: DTP human tumour cell line panel, 48 h
[1] = test system: 786-0 renal
[2] = test system: A549 NSCLC
[3] = test system: ACHN renal
[4] = test system: BT-549 breast
[5] = test system: CAKI-1 renal
[6] = test system: CCRF-CEM leukemia
[7] = test system: DU-145 prostate
[8] = test system: EKVX NSCLC
[9] = test system: HCT-116 colon
[10] = test system: HCT-15 colon
[11] = test system: HL-60(TB) leukemia
[12] = test system: HOP-62 NSCLC
[13] = test system: HOP-92 NSCLC
[14] = test system: HT29 colon
[15] = test system: IGROV1 ovarian
[16] = test system: K-562 leukemia
[17] = test system: KM12 colon
[18] = test system: LOX IMVI melanoma
[19] = test system: M14 melanoma
[20] = test system: MALME-3M melanoma
[21] = test system: MCF7 breast
[22] = test system: MDA-MB-231 breast
[23] = test system: MDA-MB-435
[24] = test system: MOLT-4 leukemia
[25] = test system: NCI-H226 lung
[26] = test system: NCI-H23 lung
[27] = test system: NCI-H460 lung
[28] = test system: NCI-H522 lung
[29] = test system: OVCAR-3 ovarian
[30] = test system: OVCAR-4 ovarian
[31] = test system: OVCAR-5 ovarian
[32] = test system: OVCAR-8 ovarian
[33] = test system: PC-3 prostate
[34] = test system: RPMI-8226 leukemia
[35] = test system: RXF 393 renal
[36] = test system: SF-268 CNS
[37] = test system: SF-295 CNS
[38] = test system: SF-539 CNS
[39] = test system: SK-MEL-2 melanoma
[40] = test system: SK-MEL-5 melanoma
[41] = test system: SK-OV-3 ovarian
[42] = test system: SN12C renal
[43] = test system: SNB-75 CNS
[44] = test system: SR leukemia
[45] = test system: SW-620 colon
[46] = test system: T-47D breast
[47] = test system: TK-10 renal
[48] = test system: U251 CNS
[49] = test system: UACC-257 melanoma
[50] = test system: UACC-62 melanoma
[51] = test system: UO-31 renal
[52] = test system: A498 renal
[53] = test system: NCI/ADR-RES ovarian
[54] = test system: SK-MEL-28 melanoma
[55] = test system: HCC-2998 colon
[56] = test system: HS 578T breast
[57] = test system: SNB-19 CNS

With `COc1cc(CCC(=O)NC[C@@H](O)c2ccccc2)ccc1O` the GI50 [1] was > 100 µM, the TGI [1] was > 100 µM and the GI50 [2] was > 100 µM. For the same compound, the TGI [2] was > 100 µM, the GI50 [3] was > 100 µM and the TGI [3] was > 100 µM. For the same compound, the GI50 [4] was > 100 µM, the TGI [4] was > 100 µM and the GI50 [5] was > 100 µM. For the same compound, the TGI [5] was > 100 µM, the GI50 [6] was > 100 µM and the TGI [6] was > 100 µM. For the same compound, the GI50 [7] was > 100 µM, the TGI [7] was > 100 µM and the GI50 [8] was > 100 µM. The TGI [8] was > 100 µM, the GI50 [9] was > 100 µM and the TGI [9] was > 100 µM. The GI50 [10] was > 100 µM, the TGI [10] was > 100 µM and the GI50 [11] was > 100 µM. For the same compound, the TGI [11] was > 100 µM, the GI50 [12] was > 100 µM and the TGI [12] was > 100 µM. The GI50 [13] was > 100 µM, the TGI [13] was > 100 µM and the GI50 [14] was > 100 µM. The TGI [14] was > 100 µM, the GI50 [15] was > 100 µM and the TGI [15] was > 100 µM. The GI50 [16] was 56.8 µM, the TGI [16] was > 100 µM and the GI50 [17] was > 100 µM. For the same compound, the TGI [17] was > 100 µM, the GI50 [18] was > 100 µM and the TGI [18] was > 100 µM. The GI50 [19] was > 100 µM, the TGI [19] was > 100 µM and the GI50 [20] was > 100 µM. For the same compound, the TGI [20] was > 100 µM, the GI50 [21] was > 100 µM and the TGI [21] was > 100 µM. For the same compound, the GI50 [22] was > 100 µM, the TGI [22] was > 100 µM and the GI50 [23] was > 100 µM. For the same compound, the TGI [23] was > 100 µM, the GI50 [24] was > 100 µM and the TGI [24] was > 100 µM. The GI50 [25] was > 100 µM, the TGI [25] was > 100 µM and the GI50 [26] was > 100 µM. The TGI [26] was > 100 µM, the GI50 [27] was > 100 µM and the TGI [27] was > 100 µM. For the same compound, the GI50 [28] was > 100 µM, the TGI [28] was > 100 µM and the GI50 [29] was > 100 µM. The TGI [29] was > 100 µM, the GI50 [30] was > 100 µM and the TGI [30] was > 100 µM. The GI50 [31] was > 100 µM, the TGI [31] was > 100 µM and the GI50 [32] was > 100 µM. For the same compound, the TGI [32] was > 100 µM, the GI50 [33] was > 100 µM and the TGI [33] was > 100 µM. The GI50 [34] was > 100 µM, the TGI [34] was > 100 µM and the GI50 [35] was > 100 µM. The TGI [35] was > 100 µM, the GI50 [36] was > 100 µM and the TGI [36] was > 100 µM. The GI50 [37] was > 100 µM, the TGI [37] was > 100 µM and the GI50 [38] was > 100 µM. The TGI [38] was > 100 µM, the GI50 [39] was > 100 µM and the TGI [39] was > 100 µM. For the same compound, the GI50 [40] was > 100 µM, the TGI [40] was > 100 µM and the GI50 [41] was > 100 µM. For the same compound, the TGI [41] was > 100 µM, the GI50 [42] was > 100 µM and the TGI [42] was > 100 µM. For the same compound, the GI50 [43] was > 100 µM, the TGI [43] was > 100 µM and the GI50 [44] was 61.6 µM. The TGI [44] was > 100000 nM, the GI50 [45] was > 100 µM and the TGI [45] was > 100 µM. For the same compound, the GI50 [46] was > 100 µM, the TGI [46] was > 100 µM and the GI50 [47] was > 100 µM. For the same compound, the TGI [47] was > 100 µM, the GI50 [48] was > 100 µM and the TGI [48] was > 100 µM. For the same compound, the GI50 [49] was > 100 µM, the TGI [49] was > 100 µM and the GI50 [50] was > 100 µM. The TGI [50] was > 100 µM, the GI50 [51] was > 100 µM and the TGI [51] was > 100 µM.
Compound `CCCc1cn2c(/C=N/N=C(N)N)c(-c3ccc(Cl)c([N+](=O)[O-])c3)nc2s1` has a TGI [52] of 3.2 µM, a TGI [3] of 3.06 µM and a TGI [4] of 3.08 µM. The TGI [5] was 3.28 µM, the TGI [6] was 0.375 µM and the TGI [7] was 3.15 µM. It also gave a TGI [10] of 3.07 µM, a TGI [14] of 2.04 µM and a TGI [23] of 3.21 µM. The TGI [24] was 0.546 µM, the TGI [53] was 4.95 µM and the TGI [30] was 2.28 µM. The TGI [31] was 2.89 µM, the TGI [33] was 3.53 µM and the TGI [37] was 3.1 µM. It also gave a TGI [38] of 3.31 µM, a TGI [54] of 3.1 µM and a TGI [41] of 2.86 µM. It also gave a TGI [42] of 3.33 µM, a TGI [43] of 3.12 µM and a TGI [44] of 2750 nM. The TGI [47] was 2.91 µM and the TGI [50] was 3.38 µM.
`Cc1[nH]nc2ncc(C(=O)N3CCC[C@H]3c3ccc(Cl)cc3)cc12` was tested, and the GI50 [1] was 47.7 µM, the TGI [1] was > 100 µM and the GI50 [52] was 32.5 µM. The TGI [52] was > 100 µM, the GI50 [2] was > 100 µM and the TGI [2] was > 100 µM. The GI50 [3] was 36.3 µM, the TGI [3] was > 100 µM and the GI50 [4] was 50.6 µM. The TGI [4] was > 100 µM, the GI50 [5] was > 100 µM and the TGI [5] was > 100 µM. For the same compound, the GI50 [6] was 36.1 µM, the TGI [6] was > 100 µM and the GI50 [7] was > 100 µM. The TGI [7] was > 100 µM, the GI50 [8] was 79.8 µM and the TGI [8] was > 100 µM. The GI50 [55] was > 100 µM, the TGI [55] was > 100 µM and the GI50 [9] was 33.1 µM. The TGI [9] was > 100 µM, the GI50 [10] was 58.3 µM and the TGI [10] was > 100 µM. For the same compound, the GI50 [11] was 32.6 µM, the TGI [11] was 90.7 µM and the GI50 [12] was > 100 µM. For the same compound, the TGI [12] was > 100 µM, the GI50 [13] was 80.7 µM and the TGI [13] was > 100 µM. The GI50 [56] was > 100 µM, the TGI [56] was > 100 µM and the GI50 [14] was > 100 µM. The TGI [14] was > 100 µM, the GI50 [15] was 66.1 µM and the TGI [15] was > 100 µM. The GI50 [16] was 37.1 µM, the TGI [16] was > 100 µM and the GI50 [17] was 51.6 µM. For the same compound, the TGI [17] was > 100 µM, the GI50 [18] was 47.2 µM and the TGI [18] was > 100 µM. For the same compound, the GI50 [19] was > 100 µM, the TGI [19] was > 100 µM and the GI50 [20] was > 100 µM. The TGI [20] was > 100 µM, the GI50 [21] was 41.6 µM and the TGI [21] was > 100 µM. For the same compound, the GI50 [22] was > 100 µM, the TGI [22] was > 100 µM and the GI50 [23] was 98.1 µM. The TGI [23] was > 100 µM, the GI50 [24] was 72.1 µM and the TGI [24] was > 100 µM. For the same compound, the GI50 [25] was 64.1 µM, the TGI [25] was > 100 µM and the GI50 [26] was > 100 µM. For the same compound, the TGI [26] was > 100 µM, the GI50 [27] was > 100 µM and the TGI [27] was > 100 µM. The GI50 [28] was > 100 µM, the TGI [28] was > 100 µM and the GI50 [53] was > 100 µM. For the same compound, the TGI [53] was > 100 µM, the GI50 [29] was 64.2 µM and the TGI [29] was > 100 µM. For the same compound, the GI50 [30] was 96.6 µM, the TGI [30] was > 100 µM and the GI50 [31] was > 100 µM. For the same compound, the TGI [31] was > 100 µM, the GI50 [32] was > 100 µM and the TGI [32] was > 100 µM. For the same compound, the GI50 [33] was 45.6 µM, the TGI [33] was > 100 µM and the GI50 [34] was 63 µM. For the same compound, the TGI [34] was > 100 µM, the GI50 [35] was 39.5 µM and the TGI [35] was > 100 µM. For the same compound, the GI50 [36] was > 100 µM, the TGI [36] was > 100 µM and the GI50 [37] was 63.5 µM. The TGI [37] was > 100 µM, the GI50 [38] was 44.4 µM and the TGI [38] was > 100 µM. The GI50 [39] was > 100 µM, the TGI [39] was > 100 µM and the GI50 [54] was > 100 µM. For the same compound, the TGI [54] was > 100 µM, the GI50 [40] was 31 µM and the TGI [40] was > 100 µM. For the same compound, the GI50 [41] was > 100 µM, the TGI [41] was > 100 µM and the GI50 [42] was > 100 µM. For the same compound, the TGI [42] was > 100 µM, the GI50 [57] was > 100 µM and the TGI [57] was > 100 µM. The GI50 [43] was 84.4 µM, the TGI [43] was > 100 µM and the GI50 [45] was 76 µM. The TGI [45] was > 100 µM, the GI50 [47] was 94.2 µM and the TGI [47] was > 100 µM. The GI50 [48] was > 100 µM, the TGI [48] was > 100 µM and the GI50 [49] was > 100 µM. For the same compound, the TGI [49] was > 100 µM, the GI50 [50] was 44.1 µM and the TGI [50] was > 100 µM. For the same compound, the GI50 [51] was 61.2 µM and the TGI [51] was > 100 µM.
